Tests used:
Assay in all cases: relative viability (nuclei count vs DMSO), 5 days (fraction); higher = more cells survive
[1] = compound: CC1=CC(=NN1)NC2=CC(=NC(=N2)/C=C/C3=CC=CC=C3)N4CCN(CC4)C + COc1cccc2cc(-c3nc([C@H]4CC[C@H](C(=O)O)CC4)n4ncnc(N)c34)[nH]c12 [OSI-027] (partner 0.5 µM)
Procedure, shortened: (§1)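 For relative viability, nuclei counts in treated wells were divided by those in vehicle wells. Lung cancer cell lines had been pin-tool dosed in 1536-well plates the day after seeding and cultured for 5 days, then fixed and stained in one step (final 0.05% Triton X-100, 1% formaldehyde, 1 ug/ml Hoechst) and imaged at 4×. Doses were one drug alone or a fixed anchor-drug dose plus five library-drug doses (not always all listed) in √10 steps, and values are duplicate-plate medians.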

[2] = compound: COC1=CC(c2cc3ccccc3[nH]2)=N/C1=C\c1[nH]c(C)cc1C [Obatoclax] + Nc1ncn([C@H]2C[C@H](O)[C@@H](CO)O2)c(=O)n1 [Decitabine] (partner 2 µM)
Procedure, shortened: as §1

[3] = compound: CC1=CC(=NN1)NC2=CC(=NC(=N2)/C=C/C3=CC=CC=C3)N4CCN(CC4)C + Cc1nc(Nc2ncc(C(=O)Nc3c(C)cccc3Cl)s2)cc(N2CCN(CCO)CC2)n1 [Dasatinib] (partner 0.075 µM)
Procedure, shortened: as §1

[4] = compound: CC(C)C[C@H](NC(=O)[C@H](Cc1ccccc1)NC(=O)c1cnccn1)B(O)O [Bortezomib] + Cc1nc(Nc2ncc(C(=O)Nc3c(C)cccc3Cl)s2)cc(N2CCN(CCO)CC2)n1 [Dasatinib] (partner 0.075 µM)
Procedure, shortened: as §1

| Cell Line | relative viability ([1]; first compound 0.08 µM) | relative viability ([1]; first compound 0.253 µM) | relative viability ([1]; first compound 0.8 µM) | relative viability ([1]; first compound 2.53 µM) | relative viability ([1]; first compound 8 µM) | relative viability ([2]; first compound 0.01 µM) | relative viability ([2]; first compound 0.03162 µM) | relative viability ([2]; first compound 0.1 µM) | relative viability ([2]; first compound 0.3162 µM) | relative viability ([2]; first compound 1 µM) | relative viability ([3]; first compound 0.08 µM) | relative viability ([3]; first compound 0.253 µM) | relative viability ([3]; first compound 0.8 µM) | relative viability ([3]; first compound 2.53 µM) | relative viability ([3]; first compound 8 µM) | relative viability ([4]; first compound 0.0002 µM) | relative viability ([4]; first compound 0.000632 µM) | relative viability ([4]; first compound 0.002 µM) | relative viability ([4]; first compound 0.006325 µM) | relative viability ([4]; first compound 0.02 µM) |
| --- | --- | --- | --- | --- | --- | --- | --- | --- | --- | --- | --- | --- | --- | --- | --- | --- | --- | --- | --- | --- |
| NCI-H1755 | 0.724 | 0.715 | 0.648 | 0.363 | 0.209 | 0.684 | 0.617 | 0.697 | 0.655 | 0.662 | 0.465 | 0.466 | 0.425 | 0.253 | 0.14 | 0.449 | 0.326 | 0.418 | 0.176 | 0.196 |
| NCI-H1792 | 0.678 | 0.777 | 0.673 | 0.519 | 0.206 | 0.58 | 0.469 | 0.537 | 0.427 | 0.581 | 0.749 | 0.848 | 0.733 | 0.525 | 0.151 | 0.722 | 0.59 | 0.504 | 0.759 | 0.443 |
| NCI-H1793 | 0.301 | 0.204 | 0.26 | 0.107 | 0.0726 | 0.578 | 0.47 | 0.519 | 0.421 | 0.415 | 0.379 | 0.446 | 0.365 | 0.138 | 0.0977 | 0.35 | 0.324 | 0.381 | 0.361 | 0.168 |
| NCI-H1915 | 0.635 | 0.496 | 0.557 | 0.371 | 0.271 | 0.268 | 0.267 | 0.24 | 0.256 | 0.272 | 0.347 | 0.27 | 0.28 | 0.16 | 0.0845 | 0.234 | 0.329 | 0.315 | 0.128 | 0.0542 |
| NCI-H1944 | 0.437 | 0.4 | 0.394 | 0.272 | 0.145 | 0.429 | 0.42 | 0.464 | 0.431 | 0.388 | 0.23 | 0.209 | 0.197 | 0.147 | 0.107 | 0.225 | 0.212 | 0.222 | 0.214 | 0.137 |
| NCI-H1975 | 0.676 | 0.746 | 0.629 | 0.15 | 0.0749 | 0.476 | 0.365 | 0.322 | 0.38 | 0.278 | 0.356 | 0.394 | 0.325 | 0.124 | 0.061 | 0.385 | 0.266 | 0.106 | 0.0685 | 0.084 |
| NCI-H1993 | 0.514 | 0.484 | 0.478 | 0.457 | 0.414 | 0.659 | 0.545 | 0.618 | 0.611 | 0.612 | 0.613 | 0.527 | 0.565 | 0.44 | 0.37 | 0.542 | 0.578 | 0.577 | 0.408 | 0.456 |
| NCI-H2009 | 0.615 | 0.672 | 0.638 | 0.227 | 0.111 | 0.371 | 0.384 | 0.358 | 0.305 | 0.213 | 0.325 | 0.307 | 0.329 | 0.15 | 0.0844 | 0.291 | 0.254 | 0.244 | 0.0687 | 0.0717 |
| NCI-H2023 | 0.374 | 0.45 | 0.341 | 0.0653 | 0.041 | 0.216 | 0.203 | 0.222 | 0.159 | 0.0785 | 0.575 | 0.588 | 0.555 | 0.0936 | 0.0621 | 0.59 | 0.556 | 0.558 | 0.124 | 0.0683 |
| NCI-H2085 | 0.728 | 0.755 | 0.758 | 0.334 | 0.193 | 0.531 | 0.484 | 0.524 | 0.499 | 0.472 | 0.245 | 0.232 | 0.276 | 0.255 | 0.2 | 0.31 | 0.253 | 0.207 | 0.209 | 0.241 |
| NCI-H2087 | 0.622 | 0.295 | 0.537 | 0.196 | 0.109 | 0.215 | 0.254 | 0.34 | 0.135 | 0.142 | 0.934 | 0.601 | 0.627 | 0.182 | 0.0767 | 0.684 | 0.819 | 0.458 | 0.0422 | 0.037 |
| NCI-H2126 | 0.74 | 0.747 | 0.675 | 0.596 | 0.37 | 0.56 | 0.536 | 0.574 | 0.561 | 0.587 | 0.64 | 0.696 | 0.662 | 0.476 | 0.189 | 0.58 | 0.607 | 0.662 | 0.254 | 0.2 |

Reference: the supplement of paper PMC10307832
